Reference: patent US20250332300A1 (priority 2024, published 2025)
Where a name gives a salt, the structure may show the parent alone. Read-outs that look alike come from different tables or passages of the source. Starred links: 1 amine or outer side, 2 acyl side, 3 side chain; linkers in the order of their positions; H or OH if unused. Positions of bridges follow the written chain, without caps; N, C: chain ends. Non-standard residues stand in square brackets, D forms with d. Residues, ends and D or L forms follow the SMILES beside them. Trp(5-OH) = N[C@@H](Cc1c[nH]c2ccc(O)cc12)C(=O)O; NMePhe(4-F) = CN[C@@H](Cc1ccc(F)cc1)C(=O)O; Lys(N3) = [N-]=[N+]=NCCCC[C@H](N)C(=O)O; NMehPhe = CN[C@@H](CCc1ccccc1)C(=O)O; X3 = NC[C@H](CCC(=O)[*:2])C(=O)[*:1]; NMeE = CN[C@@H](CCC(=O)O)C(=O)O; Aad = N[C@@H](CCCC(=O)O)C(=O)O; Gly(cPr) = N[C@H](C(=O)O)C1CC1; NMeK = CN[C@@H](CCCCN)C(=O)O; NMeDap = CN[C@@H](CN)C(=O)O; NMeC = CN[C@@H](CS)C(=O)O; NMeS = CN[C@@H](CO)C(=O)O; hCys = N[C@@H](CCS)C(=O)O; Dap = NC[C@H](N)C(=O)O

Legend:
Assay type in all cases: binding
[1] = target: T1, human HER2 (23-652) (Homo sapiens, UniProt P04626); assay: Surface plasmon resonance (SPR) for assessment of peptide affinity, human HER2; parameters: towards human HER2 (23-652) and mouse HER2 (23-653); made in house
How it was run: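 Binding kinetics fitted from sensorgrams with 280 s peptide association then 3000 s dissociation (30 uL/min), using HER2 (23-652) either directly immobilized (SA/CM5) or anti-Fc-captured; 3 M magnesium chloride used for regeneration.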

[2] = target: T2, mouse HER2 (23-653) (Mus musculus, UniProt P70424); assay: Surface plasmon resonance (SPR) for assessment of peptide affinity, mouse HER2; parameters: mouse HER2 (23-653) using a Cy5 labeled peptide as a probe; made in house
Excerpt: Each protein was immobilized either onto a SA sensorchip (Cytiva, BR-1005-31) or CM5 sensorchip (Cytiva, BR-1005-30) to a density of 800-2000 RU.

[3] = target: T1, human HER2 (23-652); assay: TR-FRET competition assay for peptide potency, human HER2; parameters: towards human HER2 (23-652) and mouse HER2 (23-653); made in house; host or cells: mammalian cells
[4] = target: T2, mouse HER2 (23-653); assay: TR-FRET competition assay for peptide potency, mouse HER2; parameters: mouse HER2 (23-653) using a Cy5 labeled peptide as a probe; made in house; host or cells: mammalian cells
[5] = huHER2 TR-FRET IC50, TR-FRET competition with Cy5 labeled peptide probe, 0.1 nM human HER2, 24 h incubation
[6] = moHER2 TR-FRET IC50, TR-FRET competition with Cy5 labeled peptide probe, 0.1 nM mouse HER2, 24 h incubation
[7] = SPR, human HER2 extracellular domain, 25° C., 1:1 binding model, read-out: huHER2-SPR-ONC KD
[8] = SPR, mouse HER2 extracellular domain, 25° C., 1:1 binding model, read-out: moHER2-SPR-ONC KD
[9] = TR-FRET competition with Cy5 labeled peptide probe, 0.1 nM mouse HER2, 24 h incubation, read-out: moHER2 TR-FRET IC50

Row | SMILES | Kd [1, 7] [nM] | Kd [2, 8] [nM] | IC50 ([3]; read-out: huHER2 TR-FRET IC50) [nM] | IC50 [4, 9] [nM] | also measured
1 | CN1C(=O)[C@H](CO)NC(=O)[C@H](Cc2ccc(O)cc2)NC(=O)[C@H](CN)CCC(=O)NC[C@@H](C(=O)N(C)[C@@H](Cc2ccc(F)cc2)C(N)=O)N(C)C(=O)[C@H](C2CC2)NC(=O)[C@H](Cc2c[nH]c3ccccc23)NC(=O)[C@H](Cc2c[nH]c3ccc(O)cc23)NC(=O)[C@H](CO)N(C)C(=O)[C@@H]1CCc1ccccc1 [Example A39, (3S,6S,9S,12S,15S,18S,21S,24S,27S)-9-((1H-indol-3-yl)methyl)-N-((S)-1-amino-3-(4-fluorophenyl)-1-oxopropan-2-yl)-27-(aminomethyl)-6-cyclopropyl-12-((5-hydroxy-1H-indol-3-yl)methyl)-24-(4-hydroxybenzyl)-15,21-bis(hydroxymethyl)-N,4,16,19-tetramethyl-5,8,11,14,17,20,23,26,30-nonaoxo-18-phenethyl-1,4,7,10,13,16,19,22,25-nonaazacyclotriacontane-3-carboxamide TFA salt] (YS[NMehPhe][NMeS][Trp(5-OH)]W[Gly(cPr)][NMeDap][NMePhe(4-F)]-NH2; linker N-8 via X3) | – | – | – | – | Kd [1]: 148 nM; Kd [2]: 162 nM; IC50 [3, 5]: 129 nM; IC50 [4, 6]: 436 nM
2 | CC(=O)NCCCC[C@H]1C(=O)N[C@@H](Cc2c[nH]c3ccc(O)cc23)C(=O)N[C@@H](Cc2c[nH]c3ccccc23)C(=O)N[C@@H](C2CC2)C(=O)N(C)[C@H](C(=O)N(C)[C@@H](Cc2ccc(F)cc2)C(=O)N[C@@H](CCCCN=[N+]=[N-])C(N)=O)CNC(=O)CCC[C@H](NC(C)=O)C(=O)N[C@@H](Cc2ccc(O)cc2)C(=O)N[C@@H](CO)C(=O)N(C)[C@@H](CCc2ccccc2)C(=O)N1C [Example A74] (Ac-[Aad]YS[NMehPhe][NMeK](Ac)[Trp(5-OH)]W[Gly(cPr)][NMeDap][NMePhe(4-F)][Lys(N3)]-NH2; lactam 1-9) | 0.1 | 0.1 | 0.1 | 0.5 | IC50 ([4]; value in parentheses (**): recalculated after further repetition, read-out: moHER2 TR-FRET IC50, recalculated value achieved after further repetition): 0.3 nM
3 | CN1C(=O)[C@H](CO)NC(=O)[C@H](Cc2ccc(O)cc2)NC(=O)[C@@H](N)CCSSC[C@@H](C(=O)N(C)[C@@H](Cc2ccc(F)cc2)C(N)=O)N(C)C(=O)[C@H](C2CC2)NC(=O)[C@H](Cc2c[nH]c3ccccc23)NC(=O)[C@H](Cc2c[nH]c3ccc(O)cc23)NC(=O)[C@H](CO)N(C)C(=O)[C@@H]1CCc1ccccc1 [Example A57, (4R,7S,10S,13S,16S,19S,22S,25S,28S)-10-((1H-indol-3-yl)methyl)-28-amino-N-((S)-1-amino-3-(4-fluorophenyl)-1-oxopropan-2-y1)-7-cyclopropyl-13-((5-hydroxy-1H-indol-3-y1)methyl)-25-(4-hydroxybenzyl)-16,22-bis(hydroxymethyl)-N,5,17,20-tetramethyl-6,9,12,15,18,21,24,27-octaoxo-19-phenethyl-1,2-dithia-5,8,11,14,17,20,23,26-octaazacyclotriacontane-4-carboxamide TFA salt] (H-[hCys]YS[NMehPhe][NMeS][Trp(5-OH)]W[Gly(cPr)][NMeC][NMePhe(4-F)]-NH2; disulfide 1-9) | 2000 | 1460 | > 1000 | > 1000 | –
4 | CC(=O)N[C@H]1CCCC(=O)NC[C@@H](C(=O)N(C)[C@@H](Cc2ccc(F)cc2)C(=O)N[C@@H](CCCCNC(=O)CN2CCN(CC(=O)O)CCN(CC(=O)O)CCN(CC(=O)O)CC2)C(N)=O)N(C)C(=O)[C@H]([C@H](C)O)NC(=O)[C@H](Cc2c[nH]c3ccccc23)NC(=O)[C@H](Cc2c[nH]c3ccc(O)cc23)NC(=O)[C@H](CCCCNC(=O)CO)N(C)C(=O)[C@H](CCc2ccccc2)N(C)C(=O)[C@H](CO)NC(=O)[C@H](Cc2ccc(O)cc2)NC1=O [Example B6] | 0.5 | 1.2 | 0.3 | 1.1 | –
5 | CN1C(=O)[C@H](CO)NC(=O)[C@H](Cc2ccc(O)cc2)NC(=O)[C@@H](N)CNC(=O)CC[C@@H](C(=O)N(C)[C@@H](Cc2ccc(F)cc2)C(N)=O)N(C)C(=O)[C@H](C2CC2)NC(=O)[C@H](Cc2c[nH]c3ccccc23)NC(=O)[C@H](Cc2c[nH]c3ccc(O)cc23)NC(=O)[C@H](CO)N(C)C(=O)[C@@H]1CCc1ccccc1 [Example A34, (3S,6S,9S,12S,15S,18S,21S,24S,30S)-6-((1H-indol-3-yl)methyl)-24-amino-N-((S)-1-amino-3-(4-fluorophenyl)-1-oxopropan-2-yl)-3-cyclopropyl-9-((5-hydroxy-1H-indol-3-yl)methyl)-21-(4-hydroxybenzyl)-12,18-bis(hydroxymethyl)-N,1,13,16-tetramethyl-2,5,8,11,14,17,20,23,27-nonaoxo-15-phenethyl-1,4,7,10,13,16,19,22,26-nonaazacyclotriacontane-30-carboxamide TFA salt] (H-[Dap]YS[NMehPhe][NMeS][Trp(5-OH)]W[Gly(cPr)][NMeE][NMePhe(4-F)]-NH2; lactam 1-9) | – | – | – | – | Kd [1]: 68 nM; Kd [2]: 64 nM; IC50 [3, 5]: 158 nM; IC50 ([3]; huHER2 TR-FRET IC50, recalculated value achieved after further repetition, value in parentheses (**): recalculated after further repetition): 118 nM; IC50 [4, 6]: 296 nM; IC50 ([4]; moHER2 TR-FRET IC50, recalculated value achieved after further repetition, value in parentheses (**): recalculated after further repetition): 175 nM
6 | CC(=O)NCCCC[C@H]1C(=O)N[C@@H](Cc2c[nH]c3ccc(O)cc23)C(=O)N[C@@H](Cc2c[nH]c3ccccc23)C(=O)N[C@@H](C2CC2)C(=O)N(C)[C@H](C(=O)N(C)[C@@H](Cc2ccc(F)cc2)C(=O)N[C@@H](CCCCNC(=O)c2ccc(F)nc2)C(N)=O)CNC(=O)CCC[C@H](NC(C)=O)C(=O)N[C@@H](Cc2ccc(O)cc2)C(=O)N[C@@H](CO)C(=O)N(C)[C@@H](CCc2ccccc2)C(=O)N1C [Example F1] | < 0.1 | 0.3 | < 0.1 | 0.2 | –
7 | CC(=O)NCCCC[C@H]1C(=O)N[C@@H](Cc2c[nH]c3ccc(O)cc23)C(=O)N[C@@H](Cc2c[nH]c3ccccc23)C(=O)N[C@@H]([C@H](C)O)C(=O)N(C)[C@H](C(=O)N(C)[C@@H](Cc2ccc(F)cc2)C(=O)N[C@@H](CCCCNC(=O)N2CCN(CC(=O)O)CC2)C(N)=O)CNC(=O)CC[C@H](NC(=O)CCNC(=O)CN2CCN(CC(=O)O)CCN(CC(=O)O)CCN(CC(=O)O)CC2)C(=O)N[C@@H](Cc2ccc(O)cc2)C(=O)N[C@@H](CO)C(=O)N(C)[C@@H](CCc2ccccc2)C(=O)N1C [Example C28] | 0.6 | 3.1 | – | 4.4 | IC50 ([3]; value in parentheses (**): recalculated after further repetition, read-out: huHER2 TR-FRET IC50, recalculated value achieved after further repetition): 1.3 nM
8 | CC(=O)N[C@H]1CNC(=O)CC[C@@H](C(=O)N(C)[C@@H](Cc2ccc(F)cc2)C(N)=O)N(C)C(=O)[C@H](C2CC2)NC(=O)[C@H](Cc2c[nH]c3ccccc23)NC(=O)[C@H](Cc2c[nH]c3ccc(O)cc23)NC(=O)[C@H](CO)N(C)C(=O)[C@H](CCc2ccccc2)N(C)C(=O)[C@H](CO)NC(=O)[C@H](Cc2ccc(O)cc2)NC1=O [Example A19, (3S,6S,9S,12S,15S,18S,21S,24S,30S)-6-((1H-indol-3-yl)methyl)-24-acetamido-N-((S)-1-amino-3-(4-fluorophenyl)-1-oxopropan-2-yl)-3-cyclopropyl-9-((5-hydroxy-1H-indol-3-yl)methyl)-21-(4-hydroxybenzyl)-12,18-bis(hydroxymethyl)-N,1,13,16-tetramethyl-2,5,8,11,14,17,20,23,27-nonaoxo-15-phenethyl-1,4,7,10,13,16,19,22,26-nonaazacyclotriacontane-30-carboxamide] (Ac-[Dap]YS[NMehPhe][NMeS][Trp(5-OH)]W[Gly(cPr)][NMeE][NMePhe(4-F)]-NH2; lactam 1-9) | – | – | > 1000 | > 1000 | huHER2-SPR-ONC KD ([1]; SPR, human HER2 extracellular domain, 25° C., 1:1 binding model): no binding*; moHER2-SPR-ONC KD ([2]; SPR, mouse HER2 extracellular domain, 25° C., 1:1 binding model): no binding*
9 | CC(=O)N[C@H]1CCCC(=O)NC[C@@H](C(=O)N(C)[C@@H](Cc2ccc(F)cc2)C(=O)N[C@@H](CCCCNC(=O)CN2CCN(CC(=O)O)CCN(CC(=O)O)CCN(CC(=O)O)CC2)C(N)=O)N(C)C(=O)[C@H]([C@H](C)O)NC(=O)[C@H](Cc2c[nH]c3ccccc23)NC(=O)[C@H](Cc2c[nH]c3ccc(O)cc23)NC(=O)[C@H](CCCCNC(=O)CCO)N(C)C(=O)[C@H](CCc2ccccc2)N(C)C(=O)[C@H](CO)NC(=O)[C@H](Cc2ccc(O)cc2)NC1=O [Example B7] | 0.4 | 0.8 | 0.4 | 1.3 | –
